The values that follow come from ChEMBL document CHEMBL1649239, “Cotransfer of antibiotic resistance genes and a hylEfm-containing virulence plasmid in Enterococcus faecium” (2009).

For orientation: MIC means the smallest concentration in the dilution series that meets the test's criterion for growth inhibition. Higher therefore signals weaker potency.

≈ marks a conversion by molar mass, not a printed value.

Common to all, as to type: functional
Test [1] deals with Enterococcus faecium. Kind of test: Antimicrobial activity against erythromycin-, streptomycin-resistant Enterococcus faecium A expressing hylEfm gene by agar dilution method.
Test [2] has as its system Enterococcus faecium. Description: Antimicrobial activity against fusidic acid-, rifampin-resistant Enterococcus faecium TX1330RF by agar dilution method. (In agar dilution, organisms are placed on agar that contains the substance at set levels.)
Test [3] deals with Enterococcus faecium. Kind of test: Antimicrobial activity against erythromycin-, streptomycin-resistant Enterococcus faecium TX1330RF-A1 conjugant expressing hylEfm gene by agar dilution method.
Test [4] has as its system Enterococcus faecium. Kind of test: Antimicrobial activity against vancomycin-, gentamicin-resistant Enterococcus faecium B expressing hylEfm gene by agar dilution method.
Test [5] deals with Enterococcus faecium. Description: Antimicrobial activity against erythromycin-, streptomycin-, vancomycin-, gentamicin-resistant Enterococcus faecium TX1330RF-B1 conjugant expressing hylEfm gene by agar dilution method.
The subject of test [6] is Enterococcus faecium. Description: Antimicrobial activity against vancomycin-, gentamicin-resistant Enterococcus faecium TX1330RF-B2 conjugant expressing hylEfm gene by agar dilution method.
The test system of test [7] is Enterococcus faecium. Description: Antimicrobial activity against vancomycin-resistant Enterococcus faecium C expressing hylEfm gene by agar dilution method.
In test [8] the test system is Enterococcus faecium. Kind of test: Antimicrobial activity against pbp5 gene-deficient fusidic acid-, rifampin-resistant Enterococcus faecium D344SRF expressing hylEfm gene by agar dilution method.
Test [9] deals with Enterococcus faecium. Kind of test: Antimicrobial activity against pbp5 gene-deficient vancomycin-, fusidic acid-, rifampin-resistant Enterococcus faecium D344SRF-C6 expressing hylEfm gene by agar dilution method.

For `CC[C@H]1OC(=O)[C@H](C)[C@@H](O[C@H]2C[C@@](C)(OC)[C@@H](O)[C@H](C)O2)[C@H](C)[C@@H](O[C@@H]2O[C@H](C)C[C@H](N(C)C)[C@H]2O)[C@](C)(O)C[C@@H](C)C(=O)[C@H](C)[C@@H](O)[C@]1(C)O` [ERYTHROMYCIN], the minimum inhibitory concentration (MIC) in [1] is over 512 µg/mL; in test [2], 0.5 µg/mL (≈ 0.681 µM); in test [3], over 512 µg/mL; in test [4], over 512 µg/mL; in test [5] it was over 512 µg/mL; in test [6], 0.25 µg/mL (≈ 0.341 µM). The MIC in test [7] was over 512 µg/mL; in test [8], 512 µg/mL (≈ 698 µM); in [9], over 512 µg/mL.

Turning to `CC1(C)S[C@@H]2[C@H](NC(=O)[C@H](N)c3ccccc3)C(=O)N2[C@H]1C(=O)O` [AMPICILLIN], the minimal inhibitory concentration (MIC) turned out to be 4 µg/mL (≈ 11.4 µM) in test [1]; 1 µg/mL (≈ 2.86 µM) in test [2]; 1 µg/mL (≈ 2.86 µM) in [3]; 256 µg/mL (≈ 733 µM) in [4]; 1 µg/mL (≈ 2.86 µM) in [5]; 1 µg/mL (≈ 2.86 µM) in [6]. Besides, the MIC in test [7] is 128 µg/mL (≈ 366 µM); in test [8], under 0.25 µg/mL; in test [9], under 0.25 µg/mL.

Take `CN[C@H](CC(C)C)C(=O)N[C@H]1C(=O)N[C@@H](CC(N)=O)C(=O)N[C@H]2C(=O)N[C@H]3C(=O)N[C@H](C(=O)N[C@H](C(=O)O)c4cc(O)cc(O)c4-c4cc3ccc4O)[C@H](O)c3ccc(c(Cl)c3)Oc3cc2cc(c3O[C@@H]2O[C@H](CO)[C@@H](O)[C@H](O)[C@H]2O[C@H]2C[C@](C)(N)[C@H](O)[C@H](C)O2)Oc2ccc(cc2Cl)[C@H]1O` [VANCOMYCIN]: the values for the MIC in [4], in test [6] and in [7] were 512 µg/mL (≈ 353 µM), 256 µg/mL (≈ 177 µM) and 256 µg/mL (≈ 177 µM), respectively.
